Entries after “also recorded” stand apart in the source; their conditions may differ.
Key:
TNF-α = test: Inhibition of LPS-induced TNF-α secretion in human PBMC (ELISA); format: cell-based; settings: for IC50 / inhibition at 30 µM: Homo sapiens, LPS-induced TNF-α production in PBMC; for TNF-α inhibitory activity (in words): LPS-stimulated PBMC; for Fold more active than thalidomide 201: inhibition of TNF-α synthesis, from IC50 values
Procedure: (§1) The action of the these thiothalidomide analogs in inhibiting TNF-α secretion was assessed in human peripheral blood mononuclear cells (PBMC) and the results are shown in Table 1. Freshly prepared PBMCs were utilized in all studies. Blood, 40 ml, was drawn from a volunteer, immediately mixed with 50 U/ml Na heparin and was diluted to 50 ml total volume with sterile PBS. Samples, 20 ml, of this preparation then were layered on 20 ml Ficoll-Paque and were centrifuged (800 g, 20 min). The Ficoll/serum interface, containing PBMCs, was collected, diluted to 200 ml with PBS, and then was centrifuged (800 g, 15 min) to pellet the cells. Thereafter, the recovered pellet was re-suspended in 37° C. tissue culture medium (RPMI/1 mM Sodium pyruvate/10% heat inactivated FBS/2 mM Glutamax) and placed on ice. Recovered cells were counted, pipetted (200 ul of 5×10^5/ml) into 96 well plates, and incubated for an hour (37° C., 5% CO2). Thereafter, appropriate concentrations of test compounds or vehicle (10 ul DMSO) were added to duplicate wells. Following a further hour of incubation, a 10 ul sample of lipopolysaccharide (LPS) (100 ng/ml in supplemented medium) or vehicle was added to induce stimulated and unstimulated cells, respectively, and the cells were incubated overnight. Sixteen hours later, supernatants were collected for quantification of TNF-α levels by ELISA assay (Pierce-Endogen human TNF-α mini kit, Rockford, Ill.) and the use of specific capture and detection monoclonal antibodies, M303E and M302B (Pierce-Endogen), respectively. ELISA plates were read at λ=450 nm and TNF-α levels were determined from a six-point calibration curve that was run concurrently with the test samples. The effect of test drug concentrations on the cellular viability of PBMCs was assessed by MTS assay (Promega, Madison, Wis.) of the cells that provided the supernatant samples assayed for TNF-α levels, described above. It should be understood that this method can be used to test any of the disclosed compounds as a screening assay for readily determining their TNF-α modulating activity, and for selecting them for use in the disclosed method of treating a subject.

PBMC = test: Cellular viability of PBMCs by MTS assay; format: cell-based, human
Procedure: as §1

3′-UTR of human TNF-α = test: Luciferase reporter assay, RAW264.7 cells with vs without the TNF-α 3′-UTR; format: cell-based; settings: mouse macrophage line RAW264.7, 16 h; FIG. 1
Procedure: To determine the involvement of the 3′-UTR in the action of the thalidomide analogs, their ability to inhibit reporter gene activity in cells containing the TNF-α3′-UTR versus a control vector was assessed. This cell-based assay utilized two stably transfected cell lines derived from the mouse macrophage line, RAW264.7. One line, designated “luciferase only” expressed a luciferase reporter construct without any UTR sequences. The other line, designated “luciferase+TNF-α UTR” expressed a luciferase reporter construct with the entire 3′-UTR of human TNF-α inserted directly downstream of the luciferase coding region. Compounds were added in a concentration-dependent manner, and at the end of the incubation period (16 h, 37° C., 5% CO2) the media was removed, cells were lysed and luciferase activity was assayed with Steady-glo luciferase assay reagent (Promega) according to the supplier's directions. Background was subtracted and data from this assay was expressed as a ratio of the +3′-UTR to −3′-UTR (control) values, and was expressed as a percent as shown in FIG. 1. In this manner, compounds that show a differential effect on the two cell lines, with and without a 3′-UTR, are highlighted. […] All agents lowered luciferase reporter activity in cells stably expressing the 3′-UTR.

rat aortic ring = test: Rat aortic ring microvessel growth assay; format: cell-based; settings: 0.1-20 μg/ml daily for 4 days; FIGS. 2-11
Procedure: The angiogenesis modulating activity of representative compounds was assessed in a rat aortic ring microvessel growth assay. Briefly, twelve-well tissue culture plates were coated with 250 μl of Matrigel (Becton-Dickinson, Bedford, Mass.) and allowed to gel for 30 min at 37° C. and 5% CO2. Thoracic aortas were excised from 8- to 10-week-old male Sprague Dawley rats. After careful removal of fibroadipose tissues, the aortas were cut into 1-mm-long cross-sections, placed on Matrigel-coated wells, and covered with an additional 250 μl of Matrigel. After the second layer of Matrigel had set, the rings were covered with EGM-II and incubated overnight at 37° C. and 5% CO2. EGM-II consists of endothelial cell basal medium (EBM-II; Clonetics, San Diego, Calif.) plus endothelial cell growth factors provided as the EGM-II Bulletkit (Clonetics). The culture medium was subsequently changed to EBM-II supplemented with 2% fetal bovine serum, 0.25 μg/ml amphotericin B, and 10 μg/ml gentamicin. Aortic rings were treated daily with either the vehicle (0.5% DMSO), carboxyamidotriazole (CAI, 12 μg/ml), thalidomide or thalidomide analogs (0.1-20 μg/ml) for 4 days and photographed on the 5th day using a ×2.5 objective. CAI, a known antiangiogenic agent, was used at higher than clinically achievable concentration as a positive control. Experiments were repeated four times using aortas from four different rats. The area of angiogenic sprouting, reported in square pixels, was quantified using Adobe PhotoShop. Further details of the method are provided in Luzzio et al., J Med Chem.; 46:3793-9, 2003, which is incorporated by reference herein. It should be understood that this method can be used as an assay to rapidly select compounds having a desired angiogenic or anti-angiogenic effect, for example, for use in the disclosed methods of treating a subject.

IC50 (TNF-α)	melting point	SMILES	inhibition at 30 µM (TNF-α; 30 μM)	TNF-α inhibitory activity (in words) (TNF-α)	Fold more active than thalidomide 201 (TNF-α)	Toxicity / cytotoxicity (in words) (PBMC)	Cell viability at 0.3 μM (PBMC)	Cell viability at 3 μM (PBMC)	Cell viability at 30 μM (PBMC)	Luciferase reporter activity, +3′-UTR versus −3′-UTR cells (in words) (3′-UTR of human TNF-α)	Angiogenic modulating activity (in words) (rat aortic ring)	Inhibition of TNF-α secretion at 30 μM (in words) (TNF-α; 30 μM)	Concentration required for significant activity (TNF-α; inhibition of TNF-α secretion)
6 µM		O=C1c2ccccc2C(=S)N1C1CCC(=S)NC1=S (centres unmarked) [Compound 216, 2,3-Dihydro-3-thioxo-2-(2,6-dithioxo-3-piperidinyl)-1H-isoindol-1-one]	79%	potently inhibited TNF-α secretion	over 30 fold	without accompanying toxicity	90%	86%	94%	differential effect on the two cell lines in a dose-dependent manner	potent anti-antigiogenic activity at higher concentrations and angiogenic activity at lower concentrations		
~200 µM		O=C1CCC(N2C(=O)c3ccccc3C2=O)C(=O)N1 (centres unmarked) [Compound 201, Thalidomide]								lacked activity at 50 μM		entirely lacked activity	100 µM
8 µM	103 °C	S=C1CCCC(=S)N1 [Compound 219, 2,6-Piperidinedithione]	75%	potent inhibitory effect; also recorded: potently inhibited TNF-α secretion	25 fold	lack of toxicity; also recorded: without toxicity	99%	98%	> 100%	differential effect on the two cell lines in a dose-dependent manner			
11 µM		O=C1NC(=S)CCC1N1C(=O)c2ccccc2C1=S (centres unmarked) [Compound 215, 2,3-dihydro-3-thioxo-2-(2-oxo-6-thioxo-3-piperidinyl)-1H-isoindol-1-one]	61%	potently inhibited TNF-α secretion		without toxicity	94%	87%	> 100%	differential effect on the two cell lines in a dose-dependent manner			

Source: patent publication US8546430B2, “Thalidomide analogs” (P2D, Inc., priority 2003, dated 2013)
